# From ChEMBL document CHEMBL5696442, “Discovery of type II inhibitors of TGFβ-activated kinase 1 (TAK1) and mitogen-activated protein kinase kinase kinase kinase 2 (MAP4K2)” (J Med Chem, 2015)
# The source made the active and inactive calls. The calls are words filed in the database; no cut-off is given here.
# Columns and labels:
# [1] = molecular target: Ephrin type-B receptor 1 (Homo sapiens) (UniProt P54762); experiment: Inhibition of EPHB1 (unknown origin) at 10 uM by Ambit Kinomescan binding assay
# [2] = system: Proto-oncogene tyrosine-protein kinase receptor Ret (Homo sapiens), P07949 [M918T]; experiment: Inhibition of RET M918T mutant (unknown origin) at 10 uM by Ambit Kinomescan binding assay relative to control; values are per cent of control
# [3] = molecular target: Mitogen-activated protein kinase kinase kinase 20 (Homo sapiens, UniProt Q9NYL2); experiment: Inhibition of ZAK K1 labeling site in human Huh-7 cells at 1 uM by KiNativ Profiling analysis relative to control; assay type: cell-based
# Mitogen-activated protein kinase kinase kinase 20, sequence (Q9NYL2 2-800 limits assumed): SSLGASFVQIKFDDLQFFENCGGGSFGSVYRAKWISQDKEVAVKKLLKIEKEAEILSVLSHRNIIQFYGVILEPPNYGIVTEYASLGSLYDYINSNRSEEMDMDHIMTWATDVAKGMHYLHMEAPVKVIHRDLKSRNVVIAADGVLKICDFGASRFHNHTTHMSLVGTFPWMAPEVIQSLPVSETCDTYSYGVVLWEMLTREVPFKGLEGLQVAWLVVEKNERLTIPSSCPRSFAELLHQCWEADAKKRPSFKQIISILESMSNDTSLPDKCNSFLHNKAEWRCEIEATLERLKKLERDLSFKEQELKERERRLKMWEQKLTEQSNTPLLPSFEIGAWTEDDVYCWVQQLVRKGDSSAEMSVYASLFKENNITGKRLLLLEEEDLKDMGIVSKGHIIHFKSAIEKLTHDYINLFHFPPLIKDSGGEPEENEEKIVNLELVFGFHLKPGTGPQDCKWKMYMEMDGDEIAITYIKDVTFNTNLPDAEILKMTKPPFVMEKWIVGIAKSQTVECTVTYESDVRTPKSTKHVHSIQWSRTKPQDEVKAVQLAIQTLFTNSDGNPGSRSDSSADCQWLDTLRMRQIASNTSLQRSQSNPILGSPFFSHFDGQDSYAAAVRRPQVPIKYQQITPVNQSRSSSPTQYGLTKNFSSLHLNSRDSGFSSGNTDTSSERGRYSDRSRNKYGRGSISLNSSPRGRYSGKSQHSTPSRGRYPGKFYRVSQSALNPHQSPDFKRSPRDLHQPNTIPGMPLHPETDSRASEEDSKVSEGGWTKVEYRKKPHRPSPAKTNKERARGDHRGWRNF
# [4] = molecular target: Ribosomal protein S6 kinase alpha-6 (Homo sapiens) (UniProt Q9UK32); experiment: Inhibition of C-terminal RPS6KA6 kinase domain 2 (unknown origin) at 10 uM by Ambit Kinomescan binding assay
# Ribosomal protein S6 kinase alpha-6 (Homo sapiens), sequence (Q9UK32 whole entry, the tested form may be a part): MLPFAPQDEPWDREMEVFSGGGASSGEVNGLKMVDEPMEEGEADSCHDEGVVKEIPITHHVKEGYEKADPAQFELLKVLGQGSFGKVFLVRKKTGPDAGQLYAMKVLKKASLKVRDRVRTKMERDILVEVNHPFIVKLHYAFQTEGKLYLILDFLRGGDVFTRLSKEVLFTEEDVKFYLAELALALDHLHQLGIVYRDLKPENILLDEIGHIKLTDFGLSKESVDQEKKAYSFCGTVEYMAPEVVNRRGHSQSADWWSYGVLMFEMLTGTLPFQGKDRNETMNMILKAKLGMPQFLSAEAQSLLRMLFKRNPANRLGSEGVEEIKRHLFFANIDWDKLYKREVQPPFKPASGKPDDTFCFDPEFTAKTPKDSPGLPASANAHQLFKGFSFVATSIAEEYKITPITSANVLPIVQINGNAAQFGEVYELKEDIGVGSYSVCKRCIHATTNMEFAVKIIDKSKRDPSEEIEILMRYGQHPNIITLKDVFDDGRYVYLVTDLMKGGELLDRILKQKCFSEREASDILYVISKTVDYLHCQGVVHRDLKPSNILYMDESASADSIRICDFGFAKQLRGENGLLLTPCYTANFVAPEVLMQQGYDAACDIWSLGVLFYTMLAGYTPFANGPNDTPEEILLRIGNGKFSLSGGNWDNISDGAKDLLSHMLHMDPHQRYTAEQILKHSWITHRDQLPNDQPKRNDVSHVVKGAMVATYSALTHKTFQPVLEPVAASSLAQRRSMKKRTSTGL
# [5] = molecular target: Dual specificity mitogen-activated protein kinase kinase 1 (Homo sapiens) (UniProt Q02750); experiment: Inhibition of MAP2K1 Lys1 labeling site in human A-375 cells at 0.05 uM by KiNativ Profiling analysis relative to control; assay type: cell-based
# Dual specificity mitogen-activated protein kinase kinase 1 (Homo sapiens), sequence (Q02750 whole entry, canonical isoform): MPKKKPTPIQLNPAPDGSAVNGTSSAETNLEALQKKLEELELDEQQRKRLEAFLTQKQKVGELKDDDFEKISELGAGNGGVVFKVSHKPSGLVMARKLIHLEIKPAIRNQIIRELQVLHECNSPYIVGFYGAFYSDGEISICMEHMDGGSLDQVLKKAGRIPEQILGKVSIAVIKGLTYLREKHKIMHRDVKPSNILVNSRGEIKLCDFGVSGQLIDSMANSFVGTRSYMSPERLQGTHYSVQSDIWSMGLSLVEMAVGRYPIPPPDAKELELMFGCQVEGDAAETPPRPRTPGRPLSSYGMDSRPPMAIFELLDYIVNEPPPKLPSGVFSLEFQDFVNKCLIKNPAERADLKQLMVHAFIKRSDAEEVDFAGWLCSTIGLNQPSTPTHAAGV
# [6] = molecular target: T1, Phosphorylase b kinase gamma catalytic chain, liver/testis isoform (Homo sapiens) (UniProt P15735); experiment: Inhibition of PHKG2 (unknown origin) at 1 uM by Ambit Kinomescan binding assay relative to control; values are per cent of control
# T1 sequence (whole entry): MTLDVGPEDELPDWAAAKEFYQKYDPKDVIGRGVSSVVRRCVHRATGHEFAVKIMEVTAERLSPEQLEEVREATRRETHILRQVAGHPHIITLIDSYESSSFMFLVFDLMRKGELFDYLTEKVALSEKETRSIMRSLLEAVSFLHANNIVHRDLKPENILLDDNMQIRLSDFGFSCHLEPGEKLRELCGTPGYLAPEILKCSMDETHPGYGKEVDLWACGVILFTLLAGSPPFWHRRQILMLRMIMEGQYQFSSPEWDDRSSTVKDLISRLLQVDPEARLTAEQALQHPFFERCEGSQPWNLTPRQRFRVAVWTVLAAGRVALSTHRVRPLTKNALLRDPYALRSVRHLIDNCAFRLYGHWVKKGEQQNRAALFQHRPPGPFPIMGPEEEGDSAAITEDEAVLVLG
# [7] = molecular target: Serine/threonine-protein kinase SIK3 (Homo sapiens) (UniProt Q9Y2K2); experiment: Inhibition of QSK (unknown origin) at 1 uM by Ambit Kinomescan binding assay relative to control
# [8] = molecular target: Serine/threonine-protein kinase 4 (Homo sapiens) (UniProt Q13043); experiment: Inhibition of MST1 Lys2 labeling site harbouring DIKAGNILLNTEGHAK in human A-375 cells at 0.05 uM by KiNativ Profiling analysis relative to control
# Serine/threonine-protein kinase 4 (Homo sapiens), sequence (Q13043 whole entry, looked up): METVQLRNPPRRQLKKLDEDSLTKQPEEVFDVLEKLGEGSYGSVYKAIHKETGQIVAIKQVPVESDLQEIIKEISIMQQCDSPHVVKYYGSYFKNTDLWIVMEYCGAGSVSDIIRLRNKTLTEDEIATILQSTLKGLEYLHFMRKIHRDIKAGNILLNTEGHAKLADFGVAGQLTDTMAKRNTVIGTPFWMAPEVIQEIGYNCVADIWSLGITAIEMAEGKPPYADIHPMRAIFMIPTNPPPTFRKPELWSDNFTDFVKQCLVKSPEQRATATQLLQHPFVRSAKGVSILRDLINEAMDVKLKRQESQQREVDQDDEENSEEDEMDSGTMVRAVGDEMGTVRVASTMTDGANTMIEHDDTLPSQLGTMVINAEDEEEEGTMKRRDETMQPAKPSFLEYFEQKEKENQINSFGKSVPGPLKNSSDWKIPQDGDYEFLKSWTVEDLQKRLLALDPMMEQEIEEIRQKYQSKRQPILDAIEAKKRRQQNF
# [9] = molecular target: Serine/threonine-protein kinase VRK2 (Homo sapiens) (UniProt Q86Y07); experiment: Inhibition of VRK2 (unknown origin) at 1 uM by Ambit Kinomescan binding assay relative to control
# Serine/threonine-protein kinase VRK2 (Homo sapiens), sequence (Q86Y07 whole entry): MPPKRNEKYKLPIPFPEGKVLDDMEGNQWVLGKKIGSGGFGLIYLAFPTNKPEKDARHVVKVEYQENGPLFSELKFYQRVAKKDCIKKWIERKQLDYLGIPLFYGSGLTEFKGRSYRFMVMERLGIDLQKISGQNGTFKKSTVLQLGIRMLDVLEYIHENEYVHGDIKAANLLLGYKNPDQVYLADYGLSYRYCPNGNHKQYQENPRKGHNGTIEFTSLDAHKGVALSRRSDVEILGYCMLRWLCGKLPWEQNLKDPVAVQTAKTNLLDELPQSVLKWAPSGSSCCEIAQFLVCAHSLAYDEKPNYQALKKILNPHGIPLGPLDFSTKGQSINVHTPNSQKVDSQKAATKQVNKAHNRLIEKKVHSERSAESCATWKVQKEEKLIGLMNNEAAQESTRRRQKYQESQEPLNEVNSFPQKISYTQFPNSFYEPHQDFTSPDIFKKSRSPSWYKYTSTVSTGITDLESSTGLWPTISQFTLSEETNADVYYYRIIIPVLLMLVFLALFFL
# [10] = molecular target: Protein kinase C eta type (Homo sapiens) (UniProt P24723); experiment: Inhibition of PRKCH (unknown origin) at 1 uM by Ambit Kinomescan binding assay relative to control; values are per cent of control
# [11] = molecular target: Tyrosine-protein kinase JAK1 (Homo sapiens) (UniProt P23458); experiment: Inhibition of JAK1 in human A-375 cells at 0.05 uM by KiNativ Profiling analysis relative to control; assay type: cell-based
# Tyrosine-protein kinase JAK1 (Homo sapiens), sequence (P23458 whole entry): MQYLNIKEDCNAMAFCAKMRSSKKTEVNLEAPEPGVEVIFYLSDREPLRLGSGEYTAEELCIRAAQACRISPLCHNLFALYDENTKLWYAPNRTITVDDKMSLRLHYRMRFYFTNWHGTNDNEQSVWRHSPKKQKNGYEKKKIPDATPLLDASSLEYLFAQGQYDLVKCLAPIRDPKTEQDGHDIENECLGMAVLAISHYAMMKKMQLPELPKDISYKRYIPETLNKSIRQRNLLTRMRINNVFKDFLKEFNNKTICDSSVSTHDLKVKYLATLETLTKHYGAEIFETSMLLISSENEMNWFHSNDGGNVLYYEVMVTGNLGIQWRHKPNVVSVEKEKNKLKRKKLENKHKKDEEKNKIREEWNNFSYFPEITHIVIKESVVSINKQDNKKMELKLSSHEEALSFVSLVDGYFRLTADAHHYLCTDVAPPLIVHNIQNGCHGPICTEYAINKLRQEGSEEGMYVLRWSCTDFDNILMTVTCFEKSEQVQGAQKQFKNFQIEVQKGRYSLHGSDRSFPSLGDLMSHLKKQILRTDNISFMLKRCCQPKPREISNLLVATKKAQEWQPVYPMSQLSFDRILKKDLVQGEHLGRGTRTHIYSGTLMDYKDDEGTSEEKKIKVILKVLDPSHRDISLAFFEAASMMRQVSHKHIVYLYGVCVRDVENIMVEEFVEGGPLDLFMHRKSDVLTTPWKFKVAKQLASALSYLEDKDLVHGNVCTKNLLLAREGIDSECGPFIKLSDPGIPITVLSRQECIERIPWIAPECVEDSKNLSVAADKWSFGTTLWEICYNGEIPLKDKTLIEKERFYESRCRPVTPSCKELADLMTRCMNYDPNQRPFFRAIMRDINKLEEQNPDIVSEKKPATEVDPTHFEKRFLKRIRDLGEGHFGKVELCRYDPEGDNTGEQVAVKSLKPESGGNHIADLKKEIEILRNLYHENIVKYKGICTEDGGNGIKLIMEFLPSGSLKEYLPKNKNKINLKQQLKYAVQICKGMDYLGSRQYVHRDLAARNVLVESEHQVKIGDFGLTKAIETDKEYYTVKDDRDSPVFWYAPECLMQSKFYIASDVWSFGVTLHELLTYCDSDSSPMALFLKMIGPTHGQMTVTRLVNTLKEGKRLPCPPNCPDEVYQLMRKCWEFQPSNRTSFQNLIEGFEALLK
# [12] = molecular target: T2, Kinase suppressor of Ras 1 (Homo sapiens) (UniProt Q8IVT5); experiment: Inhibition of KSR1 ACT labeling site harbouring SKNVFYDNGKVVITDFGLFGISGVVR in human A-375 cells at 5 uM by KiNativ Profiling analysis relative to control; assay type: cell-based
# T2 sequence (whole entry): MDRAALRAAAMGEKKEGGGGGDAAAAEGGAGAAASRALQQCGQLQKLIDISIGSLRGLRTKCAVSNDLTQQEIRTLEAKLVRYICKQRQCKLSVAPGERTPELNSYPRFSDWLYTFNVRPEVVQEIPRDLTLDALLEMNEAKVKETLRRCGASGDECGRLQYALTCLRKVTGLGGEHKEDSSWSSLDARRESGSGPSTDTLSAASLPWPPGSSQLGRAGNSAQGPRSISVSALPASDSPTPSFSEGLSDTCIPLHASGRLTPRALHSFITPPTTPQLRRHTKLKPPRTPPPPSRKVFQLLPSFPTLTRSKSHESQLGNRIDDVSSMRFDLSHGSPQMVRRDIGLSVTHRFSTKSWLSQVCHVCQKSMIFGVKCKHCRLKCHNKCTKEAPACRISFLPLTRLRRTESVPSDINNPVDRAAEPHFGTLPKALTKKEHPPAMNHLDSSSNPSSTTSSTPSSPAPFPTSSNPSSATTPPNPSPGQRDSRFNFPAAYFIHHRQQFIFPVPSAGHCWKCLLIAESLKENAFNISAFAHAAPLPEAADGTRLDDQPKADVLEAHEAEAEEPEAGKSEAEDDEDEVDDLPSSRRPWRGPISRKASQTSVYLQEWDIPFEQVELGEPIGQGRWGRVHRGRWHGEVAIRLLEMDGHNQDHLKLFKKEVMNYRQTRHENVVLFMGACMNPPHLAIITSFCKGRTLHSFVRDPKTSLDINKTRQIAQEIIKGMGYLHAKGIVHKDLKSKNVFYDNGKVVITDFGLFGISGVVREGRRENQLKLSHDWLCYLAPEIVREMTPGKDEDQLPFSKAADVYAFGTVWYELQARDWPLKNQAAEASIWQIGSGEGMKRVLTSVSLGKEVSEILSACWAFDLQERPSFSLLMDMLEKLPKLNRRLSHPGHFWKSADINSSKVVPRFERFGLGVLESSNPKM
# [13] = molecular target: Serine/threonine-protein kinase 38 (Homo sapiens) (UniProt Q15208); experiment: Inhibition of NDR1 Lys1 labeling site in human Huh-7 cells at 1 uM by KiNativ Profiling analysis relative to control; assay type: cell-based
# Serine/threonine-protein kinase 38 (Homo sapiens), sequence (Q15208 2-465 limits assumed): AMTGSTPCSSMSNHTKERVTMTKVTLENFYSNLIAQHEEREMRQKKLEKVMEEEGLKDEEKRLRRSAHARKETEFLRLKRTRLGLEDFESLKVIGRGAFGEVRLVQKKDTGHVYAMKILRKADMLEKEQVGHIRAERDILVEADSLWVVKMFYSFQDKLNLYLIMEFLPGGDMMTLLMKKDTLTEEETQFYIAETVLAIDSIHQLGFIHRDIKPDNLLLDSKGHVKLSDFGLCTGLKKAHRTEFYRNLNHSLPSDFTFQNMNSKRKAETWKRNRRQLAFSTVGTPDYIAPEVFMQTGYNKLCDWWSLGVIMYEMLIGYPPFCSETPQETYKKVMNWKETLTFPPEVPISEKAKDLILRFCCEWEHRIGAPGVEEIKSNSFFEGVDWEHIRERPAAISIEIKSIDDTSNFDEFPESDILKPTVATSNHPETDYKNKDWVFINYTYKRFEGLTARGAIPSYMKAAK
# [14] = molecular target: Serine/threonine-protein kinase WNK1 (Homo sapiens) (UniProt Q9H4A3); experiment: Inhibition of Wnk1 Lys2 labeling site in human Huh-7 cell lysate at 1 uM by KiNativ Profiling analysis relative to control; assay type: subcellular
# [15] = molecular target: Serine/threonine-protein kinase 38 (Homo sapiens) (UniProt Q15208); experiment: Inhibition of NDR1 Lys1 labeling site in human Huh-7 cell lysate at 1 uM by KiNativ Profiling analysis relative to control; assay type: subcellular
smiles,measurement,setting,value
CCN1CCN(Cc2ccc(NC(=O)c3ccc(C)c(Oc4ccnc5[nH]ccc45)c3)cc2C(F)(F)F)CC1,inhibition,[1],inactive
same,residual activity,[2],0%
same,inhibition,[3],50.3%
same,inhibition,[4],inactive
same,inhibition,[5],2.9%
CCN1CCN(Cc2ccc(NC(=O)c3ccc(C)c(/C=C/c4cnc5[nH]ccc5c4OC)c3)cc2C(F)(F)F)CC1,residual activity,[6],100%
same,inhibition,[7],100%
same,inhibition,[8],-7%
same,inhibition,[9],100%
same,residual activity,[10],100%
same,inhibition,[11],12.3%
same,inhibition,[12],1.7%
CNc1cc(Oc2cc(C(=O)Nc3cc(N4CCN(C)CC4)cc(C(F)(F)F)c3)ccc2C)ncn1,inhibition,[13],16.4%
same,inhibition,[14],2.7%
same,inhibition,[15],9.5%
